{
  "source": "patent US20220315503A1",
  "about": "“METHODS FOR PRODUCING TREATED MANURE” (COMMONWEALTH SCIENTIFIC AND INDUSTRIAL RESEARCH ORGANISATION, priority 2019, published 2022)",
  "origin": "cited, not measured here",
  "key": {"[1]": {"conditions": "initial concentrations 132 to 177 μg/L; 1.5 hours packed-bed detention time"}, "[2]": {"test_system": "production of CH4 in rumen fluid"}, "[3]": {"test_system": "enteric CH4 emission", "conditions": "dairy cattle"}, "[4]": {"test_system": "enteric CH4 emission", "conditions": "sheep"}, "[5]": {"test_system": "enteric CH4 emission", "conditions": "beef cattle; administered in animal feed"}, "[6]": {"test_system": "CH4 yield of feces"}},
  "note": "Read-outs that look alike come from different tables or passages of the source.",
  "data": [
    {"molecule": "BrC(Br)Br", "note": "[bromoform, tribromomethane]", "values": [
      {"measurement": "reduction (degradation) under anaerobic conditions", "setting": "[1]", "result": "> 99", "unit": "%"},
      {"measurement": "production of CH4 compared to control in rumen fluid", "setting": "[2]; concentration of 1 μM", "result": "inhibit the production of CH4"},
      {"measurement": "production of CH4 compared to control in rumen fluid", "setting": "[2]; concentrations ≥5 μM", "result": "inhibit the production of CH4"}
    ]},
    {"molecule": "ClC(Br)Br", "note": "[dibromochloromethane]", "values": [
      {"measurement": "production of CH4 compared to control in rumen fluid", "setting": "[2]; concentration of 1 μM", "result": "inhibit the production of CH4"},
      {"measurement": "production of CH4 compared to control in rumen fluid", "setting": "[2]; concentrations ≥5 μM", "result": "inhibit the production of CH4"}
    ]},
    {"molecule": "O=[N+]([O-])OCCCO", "note": "[3NOP, 3-nitrooxypropanol]", "values": [
      {"measurement": "reduction in CH4 emissions", "setting": "[3]", "result": "up to 60%"},
      {"measurement": "reduction in CH4 emissions", "setting": "[4]", "result": 24, "unit": "%"},
      {"measurement": "reduction of CH4 emission", "setting": "[5]", "result": 59, "unit": "%"},
      {"measurement": "overall CH4 yield of spiked feces", "setting": "[6]; feces spiked with 200 mg kg^−1 dry matter", "result": "no significant difference"},
      {"measurement": "downstream effect on CH4 emissions of the feces", "setting": "[6]; inhibitor included in animal diets", "result": "no significant downstream effect"}
    ]}
  ]
}
